Twelve compounds from patent publication US7799326B2, “Methods and compositions for cathespin k complex-mediated disorders” (Mount Sinai School of Medicine, priority 2001, dated 2010) can be followed below.

Assay [1] has as its target T1, cathepsin K/CSA complex (Homo sapiens, UniProt P43235).
T1 construct: may comprise the native mature cathepsin K peptide
T1 sequence (P43235 115-329): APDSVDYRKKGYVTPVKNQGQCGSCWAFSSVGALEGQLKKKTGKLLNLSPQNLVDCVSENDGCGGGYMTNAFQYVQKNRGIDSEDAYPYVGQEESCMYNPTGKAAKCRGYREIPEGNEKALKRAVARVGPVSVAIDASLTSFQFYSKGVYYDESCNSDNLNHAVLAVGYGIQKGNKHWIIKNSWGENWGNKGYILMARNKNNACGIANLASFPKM
Kind of assay: Soluble type I collagen digestion by cathepsin K, analysed by SDS-PAGE. The note with it: 28° C.; for effect on type I collagen degradation by cathepsin K in the presence of CSA: 0.15% test substance + 0.15% CSA, 800 nM cathepsin K; for collagenase activity of the complex formed with cathepsin K (type I collagen): 0.15% polymer, pH 5.5. It counts as biochemical. The procedure:
Soluble type I bovine collagen was digested with 800 nM cathepsin K at 28° C., in 100 mM sodium acetate buffer pH 5.5, containing 2.5 mM EDTA/DTT. The reaction was stopped by the addition of 10 μM E-64 after various time periods and the samples were analyzed by 4-20% SDS-Page. […] The reaction was stopped by the addition of 10 μM E-64 after 8 h of incubation and the samples were analyzed by 4-20% SDS-polyacrylarnide electrophoresis.
Soluble type I bovine collagen was digested with 800 nM purified recombinant human cathepsin K and gelatin (soluble type I collagen was heated for 20 min at 70 C) with 0.5 nM cathepsin K at 28° C. and 37 C, in 100 mM sodium acetate buffer, pH 5.5, containing 2.5 mM EDTA/DTT. […] The reaction was stopped by the addition of 10 μM E-64 after 8 h of incubation and the samples were analyzed by 4-20% SDS-polyacrylamide electrophoresis.
The reactions were stopped by the addition of 10 μM E-64 and the samples were analyzed by 4-20% SDS-Page.
(§1) The elution buffer was 100 mM sodium acetate, pH 5.5, 1 mM EDTA/DTT. […] The reaction was stopped by the addition of 10 μM E-64 and the samples were analyzed by 4-20% SDS-Page.
as §1
The reaction was stopped by the addition of 10 μM E-64 and the samples were analyzed by 4-20% SDS-Page.
as §1, §1

Assay [2] deals with T2, cathepsin K (Homo sapiens, UniProt P43235).
T2 construct: may comprise the native mature cathepsin K peptide
T2 sequence (P43235 115-329): T1 sequence (P43235 115-329)
Kind of assay: Superdex 200 gel filtration of cathepsin K preincubated with polymers. It counts as binding. The note with it: for effect on CSA/cathepsin K complex formation: 0.15% test substance + 0.15% CSA, gel filtration; for formation of a high molecular weight complex with cathepsin K: 0.15% test substance without CSA; for elution volume (Ve) of the complex with cathepsin K: 30 μg cathepsin K preincubated with 0.15% polymer, Superdex 200, no NaCl. The procedure:
The elution buffer was 100 mM sodium acetate, pH 5.5, 1 mM EDTA/DTT.
The protein elution was recorded at OD280 nm and fractions were assayed for the hydrolysis of the cathepsin K substrate Z-Leu-Arg-MCA. […] The sample was loaded into the well of a 0.5% agarose gel and separated at room temperature at 55 V, 250 mA for 30 min in a running buffer containing 125 mM sodium acetate, pH 5.0,0.5 mM EDTA, 1 mM DTT, 40 mM NaCl, and 0.1% Chaps. The gel was dried and subsequently exposed to an X-ray film. The conditions for lane 3 were modified by the addition of 300 mM NaCl into the agarose gel and running buffer. […] Activity assays were performed using Z-LR-MCA as substrate in 100 mM sodium acetate buffer, pH 5.5, containing 2.5 mM EDTA/DTT and 0.5 nM recombinant human cathepsin K.
30 μg of cathepsin K were preincubated with elution buffer containing 0.15% low molecular fraction (V3 67.2 ml) of dermatan sulfate (DS) 0.15% 2-15 kD poly-D-Glu, or 0.15% 10 kD dextran sulfate for 20 min, and then applied to a Superdex 200 column. The elution buffer was 100 mM sodium acetate, pH 5.5, containing 1 mM EDTA/DTT.
as §1, §1, §1, §1
(In general: SEC sorts molecules by how far they enter the pores of the column.)

Assay [3] concerns the target T3, CSA/Cat K complex (Homo sapiens, UniProt P43235).
T3 construct: may comprise the native mature cathepsin K peptide
T3 sequence (P43235 115-329): T1 sequence (P43235 115-329)
Briefly: Fluoresceinamine-labeled CSA/Cat K complex formation fluorescence assay. It counts as binding. The note with it: 120 nM Cat K; 0.6 μg/ml FL-CSA; excitation 300 nm, emission 604 nm. The procedure:
Curve 1: 120 nM Cat K, then 0.6 μg/ml FL-CSA, and then 3 μg/ml dextran sulfate; Curve 2:,0.6 μg/ml FL-CSA, then 120 nM Cat K, and then 3 μg/ml dextran sulfate.
The pH was adjusted to pH 11 by addition of 5 M NaOH. […] The mixture was kept overnight at 4° C. for the coupling reaction. Subsequently, the mixture was concentrated to 1 ml using a SpeedVac concentrator and purified on a PD-10 column and eluded by 50 mM sodium acetate buffer, pH 5.5.
Cat K at a final concentration of 120 nM was added to 1 ml 100 mM sodium acetate buffer, pH 5.5 containing 2 mM EDTA/DTT using 2 milliliter cuvettes. The fluorescence signal for the protein alone is close to zero. […] After the addition of complex formation inhibitors, the fluorescence signal dropped to zero (FIG. 1). This assay allows the simple and convenient screening of compounds capable to interfere with complex formation.

The target in assay [4] is T2, cathepsin K. Kind of assay: Agarose gel electrophoretic mobility shift assay of cathepsin K complexes. It counts as binding. The note with it: for effect on CSA/cathepsin K complex formation: 0.15% test polymer + 0.15% CSA, mobility shift; for affinity to cathepsin K relative to CSA: inferred from competition with 0.15% CSA. The procedure:
The protein elution was recorded at OD280 nm and fractions were assayed for the hydrolysis of the cathepsin K substrate Z-Leu-Arg-MCA. […] The gel was dried and subsequently exposed to an X-ray film. […] Activity assays were performed using Z-LR-MCA as substrate in 100 mM sodium acetate buffer, pH 5.5, containing 2.5 mM EDTA/DTT and 0.5 nM recombinant human cathepsin K.
After exposure of the dried gel to an X-ray film, the signal of free cathepsin K was densitometrically determined and the amount of cathepsin K in the complex was calculated (cat Kcompley=cat Ktotal−cat Kfree).
Samples were subsequently mixed with non-reducing protein sample buffer, DNA dye, and melted agarose gel (melted at 37 C; 0.4% final concentration) at 37 C and embedded into a pre-made wells of a 0.5% agarose gel (running conditions: 25° C.; 55 V, 250 mA for 30 min). The gel was stained with toluidine blue for glycosaminoglycans and coomassie blue for protein.
(In general: Mobility shift assays separate free from complexed probe on a gel.)

Assay [5] in a line: Mobility shift assay of complex formation of proteases with CSA. The note with it: 50 ng [125I]DCG-04 labeled protease; 0.1% CSA. It counts as binding. The procedure:
The gel was run at about 25° C. 55 V, 250 mA for 30 min, then dried and developed the radio signal on a film.

Consider `CC(=O)N[C@H]1C(O)O[C@H](CO)[C@H](OS(=O)(=O)O)[C@@H]1O[C@@H]1OC(C(=O)O)=C[C@H](O)[C@H]1O` (stereo partly drawn) [CSA disaccharide, chondroitin disaccharide-4S], for which the “effect on type I collagen degradation by cathepsin K in the presence of CSA” value (shortened to “effect on type I collagen degradation”) in assay [1] was “identical”. In assay [2], the “effect on CSA/cathepsin K complex formation” value is recorded as “did not interfere with complex formation” and the “formation of a high molecular weight complex with cathepsin K” value is reported as “unable to generate high-molecular complexes with cathepsin K”. In addition, the “effect on fluorescence signal of FL-CSA/Cat K complex” value (“effect … of FL-CSA/Cat K complex” below) in assay [3] was “did not show any effect”.
For `[Cl-].[Na+]` [NaCl], in assay [4] (300 mM NaCl in agarose gel and running buffer, 0.1% CSA), the “effect on cathepsin K/CSA complex” value is “the complex dissociated”. In assay [2] (elution in the presence of 300 mM NaCl, cathepsin K/CSA mixture), the “effect on cathepsin K complex formation” value is listed as “inhibits the formation of cathepsin K complexes”.
Regarding “Cat L: human cathepsin L, closely related cysteine protease”, in assay [5], the “complex formation with CSA” value is given as “Only cathepsin K formed a stable complex”.
For the compound dermatan sulfate, the “elution volume (Ve) of the complex with cathepsin K” value (from here on “elution volume (Ve) of the complex”) in assay [2] stood at 14 mL. The “effect … of FL-CSA/Cat K complex” value in assay [3] is listed as “decrease the fluorescence signal”.
dextran: the “effect on type I collagen degradation” value in assay [1] was “identical”. For the same compound, the “formation of a high molecular weight complex with cathepsin K” value in assay [2] is given as “did not form a high molecular weight complex with cathepsin K”. Moreover, the “effect … of FL-CSA/Cat K complex” value in assay [3] is listed as “did not show any effect”.
As for dextran sulfate, in assay [4], the “effect on CSA/cathepsin K complex formation” value is “blocked” and the “affinity to cathepsin K relative to CSA” value was “bind with a higher affinity to cathepsin K than CSA”. In assay [1], the “collagenase activity of the complex formed with cathepsin K (type I collagen)” value was “did not exhibit collagenase activity” and the “effect on type I collagen degradation” value was “prevents the degradation of type I collagen”. In addition, in assay [2], the “elution volume (Ve) of the complex” value was 13.5 mL and the “effect on CSA/cathepsin K complex formation” value is “prevented the formation of a cathepsin K/CSA complex”. The “effect … of FL-CSA/Cat K complex” value in assay [3] was “decrease the fluorescence signal”.
heparan sulfate: the “effect … of FL-CSA/Cat K complex” value in assay [3] is “decrease the fluorescence signal”.
For poly-D-Glu, in assay [4], the “effect on CSA/cathepsin K complex formation” value is recorded as “blocked” and the “affinity to cathepsin K relative to CSA” value is given as “bind with a higher affinity to cathepsin K than CSA”. In addition, in assay [1], the “collagenase activity of the complex formed with cathepsin K (type I collagen)” value is given as “did not exhibit collagenase activity” and the “effect on type I collagen degradation” value is given as “prevents the degradation of type I collagen”. Also, in assay [2], the “elution volume (Ve) of the complex” value worked out at 14.2 mL and the “effect on CSA/cathepsin K complex formation” value is given as “prevented the formation of a cathepsin K/CSA complex”.
poly-alanine: the “effect … of FL-CSA/Cat K complex” value in assay [3] was “did not show any effect”.
Consider poly-aspartic acid, for which, in assay [3], the “effect … of FL-CSA/Cat K complex” value was “decrease the fluorescence signal”.
Still for that read-out and setting: as for poly-glutamic acid, the entry is “decrease the fluorescence signal”; as for poly-lysine, “did not show any effect”.
